Patent US20240025883A1, “PYRIMIDIN-2-YL SULFONAMIDE DERIVATIVES” (Hoffmann-La Roche Inc., priority 2021, published 2024)
pIC50: −log10 of the molar value.

Target: human GPR17 short isoform (Homo sapiens (Human), UniProt Q13304)
Assay: GPR17 cAMP assay (hGPR17 cAMP, antagonist mode against EC80 of MDL29,951)
Assay type: cell-based
Conditions: CHO-K1 cells stably expressing human GPR17 short isoform; EC80 of agonist MDL29,951; forskolin 15 μM
Description: GPR17 cAMP Assay Protocol:
CHO-K1 cells stably expressing vector containing untagged human GPR17 short isoform (Roche) were cultured at 37° C./5% CO2 in DMEM (Dulbecco's Modified Eagle Medium):F-12 (1:1) supplemented with 10% foetal bovine serum and 400 μg/ml Geneticin.
Changes in intracellular cyclic adenosine monophosphate (cAMP) levels were quantified using the Nano-TRF Detection Assay kit (Roche Diagnostics, Cat. No. 05214386001). This assay allows for direct cAMP quantification in a homogeneous solution, cAMP is detected based on time-resolved fluorescence energy transfer (TR-FRET) and competitive binding of ruthenylated cAMP and endogenous cAMP to an anti-cAMP monoclonal antibody labeled with AlexaFluor-700. The Ruthenium complex serves as the FRET donor and transfers energy to AlexaFluor-700. The FRET signal is inversely proportional to the cAMP concentration.
CHO-GPR17S cells were detached with Accutase and resuspended in assay buffer consisting of Hank's Balanced Salt Solution (HBSS), 10 mM HEPES (4-(2-hydroxyethyl) piperazine-1-ethanesulfonic acid solution) and 0.1% bovine serum albumin (pH 7.4). The cells were seeded in black 384-well plates (Corning) at a density of 10,000 cells/20 μl assay buffer until the addition of compounds.
Test antagonist compounds were serially diluted in dimethyl sulfoxide (DMSO) and spotted in 384-well plates. The compounds were then diluted in HBSS buffer supplemented with an EC80 concentration of MDL29,951 (3-(2-Carboxy-4,6-dichloroindol-3-yl)propionic acid) (GPR17 agonist) plus 3-Isobutyl-1-methylxanthine (IBMX) (0.5 mM final concentration) and added to the cells at room temperature. Forskolin (15 μM final concentration) was added 5 minutes after the test compounds and the cells were incubated at room temperature for 30 minutes. The assay was stopped by adding cAMP detection mix (containing detergents for cell lysis) for 90 minutes at room temperature.
Cellular cAMP was measured using a Paradigm reader (Molecular Devices). The raw data was used to calculate the FRET signal based on the assay's P-factor as per cAMP kit instructions. The data was normalized to the maximal activity of a reference antagonist and dose response curves were fitted to the percent activity of the test compounds using a sigmoidal dose response model (Genedata Screener).

human GPR17 short isoform, sequence (Q13304 29-367): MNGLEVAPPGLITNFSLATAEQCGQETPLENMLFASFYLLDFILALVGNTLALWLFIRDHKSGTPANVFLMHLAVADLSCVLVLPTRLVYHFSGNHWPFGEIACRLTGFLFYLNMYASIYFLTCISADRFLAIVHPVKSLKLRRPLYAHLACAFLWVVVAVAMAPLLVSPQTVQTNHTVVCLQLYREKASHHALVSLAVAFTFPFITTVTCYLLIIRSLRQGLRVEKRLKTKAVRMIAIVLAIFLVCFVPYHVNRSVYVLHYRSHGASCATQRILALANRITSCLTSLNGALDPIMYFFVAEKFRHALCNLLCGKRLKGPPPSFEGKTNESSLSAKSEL

Compound	pIC50
COc1nc(NS(=O)(=O)c2c[nH]c3cc(Cl)ccc23)nc(C(C)(F)F)c1Br [Example 82, N-[5-bromo-4-(1,1-difluoroethyl)-6-methoxy-pyrimidin-2-yl]-6-chloro-1H-indole-3-sulfonamide]	6.12
COc1nc(NS(=O)(=O)c2csc3nc(C(F)F)ccc23)ncc1OCCF [Example 165, 6-(difluoromethyl)-N-[5-(2-fluoroethoxy)-4-methoxy-pyrimidin-2-yl]thieno[2,3-b]pyridine-3-sulfonamide]	5.96
COCCOc1nc(NS(=O)(=O)c2c[nH]c3cc(Cl)ccc23)nc(OC)c1Br [Example 70, N-[5-bromo-4-methoxy-6-(2-methoxyethoxy)pyrimidin-2-yl]-6-chloro-1H-indole-3-sulfonamide]	5.56
COc1nc(NS(=O)(=O)c2csc3nc(Br)ccc23)ncc1CCC#N [Example 149, 6-bromo-N-[5-(2-cyanoethyl)-4-methoxy-pyrimidin-2-yl]thieno[2,3-b]pyridine-3-sulfonamide]	6.83
COc1nc(NS(=O)(=O)c2c[nH]c3cc(Cl)ccc23)nc(C(F)F)c1Br [Example 84, N-[5-bromo-4-(difluoromethyl)-6-methoxy-pyrimidin-2-yl]-6-chloro-1H-indole-3-sulfonamide]	6.28
COc1nc(NS(=O)(=O)c2c[nH]c3cc(Br)ccc23)ncc1OCCF [Example 25, 6-bromo-N-[5-(2-fluoroethoxy)-4-methoxy-pyrimidin-2-yl]-1H-indole-3-sulfonamide]	7.64
COc1nc(NS(=O)(=O)c2c[nH]c3c2ccc2cccnc23)nc(OC)c1OCC(F)F [Example 168, N-[5-(2,2-difluoroethoxy)-4,6-dimethoxy-pyrimidin-2-yl]-1H-pyrrolo[3,2-h]quinoline-3-sulfonamide]	7.59
COc1nc(NS(=O)(=O)c2c[nH]c3cc(Cl)ccc23)nc(C2CC2)c1OCC(F)F [Example 19, 6-chloro-N-[4-cyclopropyl-5-(2,2-difluoroethoxy)-6-methoxy-pyrimidin-2-yl]-1H-indole-3-sulfonamide]	7.31
COc1nc(NS(=O)(=O)c2c[nH]c3nc(C(F)F)ccc23)nc(OC)c1CCC(F)F [Example 98, 6-(difluoromethyl)-N-[5-(3,3-difluoropropyl)-4,6-dimethoxy-pyrimidin-2-yl]-1H-pyrrolo[2,3-b]pyridine-3-sulfonamide]	7.60
COc1nc(NS(=O)(=O)c2c[nH]c3c2ccc2cccnc23)nc(OC)c1CC(F)F [Example 169, N-[5-(2,2-difluoroethyl)-4,6-dimethoxy-pyrimidin-2-yl]-1H-pyrrolo[3,2-h]quinoline-3-sulfonamide]	7.70
COc1nc(NS(=O)(=O)c2c[nH]c3cc(Cl)ccc23)nc(OC)c1OCCF [Example 53, 6-chloro-N-[5-(2-fluoroethoxy)-4,6-dimethoxy-pyrimidin-2-yl]-1H-indole-3-sulfonamide]	7.96
COc1nc(NS(=O)(=O)c2c[nH]c3c(F)c(Br)ccc23)nc(OC)c1CCC#N [Example 243, 6-bromo-N-[5-(2-cyanoethyl)-4,6-dimethoxy-pyrimidin-2-yl]-7-fluoro-1H-indole-3-sulfonamide]	8.05
CC#CCOc1cnc(NS(=O)(=O)c2c[nH]c3cc(Cl)ccc23)nc1OC [Example 175, N-(5-but-2-ynoxy-4-methoxy-pyrimidin-2-yl)-6-chloro-1H-indole-3-sulfonamide]	7.14
COc1cnc(NS(=O)(=O)c2c[nH]c3cc(Cl)ccc23)nc1Cl [Example 173, 6-chloro-N-(4-chloro-5-methoxy-pyrimidin-2-yl)-1H-indole-3-sulfonamide]	6.06
COc1nc(NS(=O)(=O)c2c[nH]c3cc(Cl)ccc23)nc(OC2CC2)c1Br [Example 71, N-[5-bromo-4-(cyclopropoxy)-6-methoxy-pyrimidin-2-yl]-6-chloro-1H-indole-3-sulfonamide]	4.94
COc1nc(NS(=O)(=O)c2c[nH]c3cc(Br)ccc23)nc(OC)c1OC(F)F [Example 90, 6-bromo-N-[5-(difluoromethoxy)-4,6-dimethoxy-pyrimidin-2-yl]-1H-indole-3-sulfonamide]	7.54
COc1nc(NS(=O)(=O)c2c[nH]c3nc(Br)ccc23)nc(OC)c1OCC#N [Example 114, 6-bromo-N-[5-(cyanomethoxy)-4,6-dimethoxy-pyrimidin-2-yl]-1H-pyrrolo[2,3-b]pyridine-3-sulfonamide]	7.35
C=CCc1c(OC)nc(NS(=O)(=O)c2c[nH]c3cc(Cl)ccc23)nc1OC [Example 56, N-(5-allyl-4,6-dimethoxy-pyrimidin-2-yl)-6-chloro-1H-indole-3-sulfonamide]	7.89

Further lines, results first:

pIC50	Compound
8.10	COc1nc(NS(=O)(=O)c2c[nH]c3c(SC(F)F)c(Cl)ccc23)ncc1CC(F)F [Example 199, 6-chloro-N-[5-(2,2-difluoroethyl)-4-methoxy-pyrimidin-2-yl]-7-(difluoromethylsulfanyl)-1H-indole-3-sulfonamide]
7.64	COc1nc(NS(=O)(=O)c2c[nH]c3c(F)c(Cl)ccc23)nc(OC)c1OC(F)F [Example 125, 6-chloro-N-[5-(difluoromethoxy)-4,6-dimethoxy-pyrimidin-2-yl]-7-fluoro-1H-indole-3-sulfonamide]
7.09	CCCc1cnc(NS(=O)(=O)c2c[nH]c3cc(Cl)ccc23)nc1OC [Example 45, 6-chloro-N-(4-methoxy-5-propyl-pyrimidin-2-yl)-1H-indole-3-sulfonamide]
7.42	COc1nc(NS(=O)(=O)c2c[nH]c3c(C(F)F)c(Cl)ccc23)ncc1CC(F)F [Example 214, 6-chloro-N-[5-(2,2-difluoroethyl)-4-methoxy-pyrimidin-2-yl]-7-(difluoromethyl)-1H-indole-3-sulfonamide]
7.14	COc1nc(NS(=O)(=O)c2csc3nc(Br)ccc23)ncc1CCC(F)F [Example 270, 6-bromo-N-[5-(3,3-difluoropropyl)-4-methoxy-pyrimidin-2-yl]thieno[2,3-b]pyridine-3-sulfonamide]
7.80	COc1nc(NS(=O)(=O)c2c[nH]c3c(SC)c(Cl)ccc23)ncc1CC(F)F [Example 234, 6-chloro-N-[5-(2,2-difluoroethyl)-4-methoxy-pyrimidin-2-yl]-7-(methylthio)-1H-indole-3-sulfonamide]
7.09	COc1nc(NS(=O)(=O)c2c[nH]c3c(F)c(Cl)ccc23)ncc1OC(F)F [Example 126, 6-chloro-N-[5-(difluoromethoxy)-4-methoxy-pyrimidin-2-yl]-7-fluoro-1H-indole-3-sulfonamide]
6.91	COc1nc(NS(=O)(=O)c2c[nH]c3c(Br)cccc23)nc(OC)c1CC(F)F [Example 134, 7-bromo-N-[5-(2,2-difluoroethyl)-4,6-dimethoxy-pyrimidin-2-yl]-1H-indole-3-sulfonamide]
7.92	COc1nc(NS(=O)(=O)c2c[nH]c3c(SC(F)F)c(Cl)ccc23)nc(OC)c1CCC#N [Example 107, 6-chloro-N-[5-(2-cyanoethyl)-4,6-dimethoxy-pyrimidin-2-yl]-7-(difluoromethylthio)-1H-indole-3-sulfonamide]
6.01	COc1nc(NS(=O)(=O)c2c[nH]c3cc(CC#N)ccc23)ncc1CC(F)F [Example 197, 6-(cyanomethyl)-N-[5-(2,2-difluoroethyl)-4-methoxy-pyrimidin-2-yl]-1H-indole-3-sulfonamide]
7.47	COc1nc(NS(=O)(=O)c2c[nH]c3c(F)c(Br)ccc23)ncc1OCCF [Example 213, 6-bromo-7-fluoro-N-[5-(2-fluoroethoxy)-4-methoxy-pyrimidin-2-yl]-1h-indole-3-sulfonamide]
6.73	COc1nc(NS(=O)(=O)c2c[nH]c3cc(Cl)ccc23)ncc1OCC(F)F [Example 135, 6-chloro-N-[5-(2,2-difluoroethoxy)-4-methoxy-pyrimidin-2-yl]-1H-indole-3-sulfonamide]
7.48	COc1nc(NS(=O)(=O)c2c[nH]c3c(F)c(Br)ccc23)ncc1CC(F)F [Example 191, 6-bromo-N-[5-(2,2-difluoroethyl)-4-methoxy-pyrimidin-2-yl]-7-fluoro-1H-indole-3-sulfonamide]
6.63	COc1nc(NS(=O)(=O)c2c[nH]c3cc(C(C)(C)O)ccc23)ncc1CC(F)F [Example 274, N-[5-(2,2-difluoroethyl)-4-methoxy-pyrimidin-2-yl]-6-(1-hydroxy-1-methyl-ethyl)-1h-indole-3-sulfonamide]
7.33	COc1nc(NS(=O)(=O)c2c[nH]c3cc(Cl)ccc23)ncc1CC(F)CF (stereo not drawn) [Example 176, 6-chloro-N-[5-(2,3-difluoropropyl)-4-methoxy-pyrimidin-2-yl]-1H-indole-3-sulfonamide]
